Values after ≈ are worked out from the molar mass of the structure shown. Active and inactive are the calls of the source. No cut-off for these calls is given here.
Columns and labels:
[1] = tested on: Vero; test: Cytotoxicity against african green monkey Vero cells after 72 hrs; assay type: cell-based; settings: Chlorocebus sabaeus
[2] = tested on: Mycobacteroides abscessus; test: Antimicrobial activity against Mycobacterium abscessus by microbroth dilution assay; assay type: functional
[3] = tested on: Mycobacteroides chelonae; test: Antimicrobial activity against Mycobacterium chelonae by microbroth dilution assay; assay type: functional
[4] = tested on: Mycobacterium marinum; test: Antimicrobial activity against Mycobacterium marinum by microbroth dilution assay; assay type: functional
[5] = tested on: Mycobacterium avium; test: Antimicrobial activity against Mycobacterium avium by microbroth dilution assay; assay type: functional
[6] = tested on: Mycobacterium kansasii; test: Antimicrobial activity against Mycobacterium kansasii by microbroth dilution assay; assay type: functional
[7] = tested on: Mycolicibacterium smegmatis; test: Antimicrobial activity against Mycobacterium smegmatis by microbroth dilution assay; assay type: functional
[8] = tested on: Mycobacterium tuberculosis; test: microbe, parasite or virus in culture; settings: H37Rv ATCC 27294, 168 h
Description: Antituberculosis activity against Mycobacterium tuberculosis H37Rv ATCC 27294 in GAST medium after 1 week by microplate alamar blue assay

[9] = tested on: Mycobacterium tuberculosis; test: microbe, parasite or virus in culture; settings: H37Rv ATCC 27294, 168 h; remark: listed apart in the source
Description: Antituberculosis activity against Mycobacterium tuberculosis H37Rv ATCC 27294 in GAS medium after 1 week by microplate alamar blue assay

[10] = tested on: Mycobacterium tuberculosis; test: microbe, parasite or virus in culture; settings: H37Rv ATCC 27294, 168 h; remark: listed apart in the source
Description: Antituberculosis activity against Mycobacterium tuberculosis H37Rv ATCC 27294 in 7H12 medium after 1 week by microplate alamar blue assay

[11] = tested on: Mycobacterium tuberculosis; test: microbe, parasite or virus in culture; settings: H37Rv
Description: Antimicrobial activity against Mycobacterium tuberculosis H37Rv by microbroth dilution assay

[12] = tested on: Mycobacterium tuberculosis; test: Antitubercular activity against non-replicating Mycobacterium tuberculosis H37Rv expressing vibrio harveyii luciferase gene incubated 10 days under anaerobic condition measured after 28 hrs of recovery in aerobic condition by luciferase based low oxygen recovery assay
[13] = Drug metabolism in rat liver microsomes at 1 mM after 30 mins by LC/MS analysis; assay type: ADME, Microsome; settings: read-out: Drug metabolism
[14] = Drug metabolism in human liver microsomes at 1 mM after 30 mins by LC/MS analysis; assay type: ADME, Microsome; settings: read-out: Drug metabolism
[15] = tested on: Staphylococcus aureus; test: Antibacterial activity against Staphylococcus aureus; assay type: functional
[16] = tested on: Escherichia coli; test: Antimicrobial activity against Escherichia coli; assay type: functional
[17] = tested on: Candida albicans; test: Antifungal activity against Candida albicans; assay type: functional
[18] = Cmax in Sprague-Dawley rat at 10 mg/kg, po; assay type: ADME, organism-based; design: dose 10 mg/kg, route oral; settings: in vivo
[19] = Half life in Sprague-Dawley rat at 1 mg/kg, iv; assay type: ADME, organism-based; design: dose 1 mg/kg, route intravenous; settings: in vivo
[20] = Clearance in Sprague-Dawley rat at 1 mg/kg, iv; assay type: ADME, organism-based; design: dose 1 mg/kg, route intravenous; settings: in vivo
[21] = tested on: Rattus norvegicus; test: Oral bioavailability in Sprague-Dawley rat at 10 mg/kg; assay type: ADME, organism-based; settings: in vivo
[22] = Aqueous solubility of the compound in PBS buffer at pH 7.4; assay type: physicochemical
[23] = in vivo; settings: Sprague-Dawley, rat, po, 10 mg/kg
[24] = Half life in rat liver microsomes at 1 mM by LC/MS analysis; assay type: ADME, Microsome
[25] = tested on: Mycobacterium tuberculosis; test: Antitubercular activity against Mycobacterium tuberculosis assessed as up-regulation of cytochrome bd oxidase at 0.1 to 10 ug/mL after 6 hrs; assay type: functional, organism-based
[26] = tested on: Mycobacterium tuberculosis; test: Antitubercular activity against Mycobacterium tuberculosis assessed as up-regulation of phosphoenolpyruvate carboxykinase at 0.1 to 10 ug/mL after 6 hrs; assay type: functional, organism-based

Compound: CO[C@H]1/C=C/O[C@@]2(C)Oc3c(C)c(O)c4c(O)c(c(/C=N/N5CCN(C)CC5)c(O)c4c3C2=O)NC(=O)/C(C)=C\C=C\[C@H](C)[C@H](O)[C@@H](C)[C@@H](O)[C@@H](C)[C@H](OC(C)=O)[C@@H]1C [RIFAMPIN]
- IC50 [1]: 113 µM
- MIC90 [2]: 162 µM (≈ 134 µg/mL)
- MIC90 [3]: 150 µM (≈ 123 µg/mL)
- MIC90 [4]: < 0.78 µM
- MIC90 [5]: < 0.78 µM
- MIC90 [6]: < 0.78 µM
- MIC90 [7]: 162 µM (≈ 134 µg/mL)
- MIC90 [8]: 0.2 µM (≈ 0.165 µg/mL)
- MIC90 [9]: 0.8 µM (≈ 0.658 µg/mL)
- MIC90 [10]: 0.07 µM (≈ 0.0576 µg/mL)
- MIC90 [11]: 0.05 µM (≈ 0.0411 µg/mL)

Compound: COc1ccc(CNC(=O)c2c(C)nc3cc(C)ccn23)cc1
- MIC90 [12]: 10.5 µM (≈ 3.25 µg/mL)
- IC50 [1]: > 128 µM
- metabolised at 0.5 h [13]: 69%
- metabolised at 0.5 h [14]: 30%
- MIC [15]: > 128 µM
- MIC [16]: > 128 µM
- MIC [17]: > 128 µM
- Cmax [18]: 5740 ng/mL
- half-life [19]: 16.8 min
- clearance [20]: 28 mL/min/kg
- F [21]: 50%
- solubility [22]: 148 µM (≈ 45.8 µg/mL)
- Tmax [23]: 15 min
- MIC90 [8]: 0.5 µM (≈ 0.155 µg/mL)
- MIC90 [9]: 0.51 µM (≈ 0.158 µg/mL)
- MIC90 [10]: 1.35 µM (≈ 0.418 µg/mL)

Compound: Cc1ccn2c(C(=O)NCc3ccccc3)c(C)nc2c1
- MIC90 [12]: 53.6 µM (≈ 15 µg/mL)
- IC50 [1]: > 128 µM
- metabolised at 0.5 h [13]: 71%
- metabolised at 0.5 h [14]: 59%
- half-life [24]: 19 min
- MIC90 [2]: > 50 µM
- MIC90 [3]: > 50 µM
- MIC90 [4]: > 50 µM
- MIC90 [5]: 1.32 µM (≈ 0.369 µg/mL)
- MIC90 [6]: 1.32 µM (≈ 0.369 µg/mL)
- MIC90 [7]: > 50 µM
- MIC [15]: > 128 µM
- MIC [16]: > 128 µM
- MIC [17]: > 128 µM
- Cmax [18]: 3010 ng/mL
- half-life [19]: 21 min
- clearance [20]: 91 mL/min/kg
- F [21]: 76%
- solubility [22]: 181 µM (≈ 50.6 µg/mL)
- Activity [25]: Active
- Activity [26]: Active
- Tmax [23]: 15 min
- MIC90 [8]: 0.69 µM (≈ 0.193 µg/mL)
- MIC90 [9]: 0.37 µM (≈ 0.103 µg/mL)
- MIC90 [10]: 1.9 µM (≈ 0.531 µg/mL)
- MIC90 [11]: 1.07 µM (≈ 0.299 µg/mL)

Compound: Cc1ccn2c(C(=O)Nc3ccccc3)c(C)nc2c1
- MIC90 [8]: > 128 µM

Compound: COc1cccc(CNC(=O)c2c(C)nc3cc(C)ccn23)c1
- MIC90 [12]: 31.4 µM (≈ 9.71 µg/mL)
- IC50 [1]: > 128 µM
- metabolised at 0.5 h [13]: 80%
- metabolised at 0.5 h [14]: 47%
- MIC [15]: > 128 µM
- MIC [16]: > 128 µM
- MIC [17]: > 128 µM
- Cmax [18]: 3140 ng/mL
- half-life [19]: 19.8 min
- clearance [20]: 43 mL/min/kg
- solubility [22]: 149 µM (≈ 46.1 µg/mL)
- Tmax [23]: 15 min
- MIC90 [8]: 1 µM (≈ 0.309 µg/mL)
- MIC90 [9]: 1.2 µM (≈ 0.371 µg/mL)
- MIC90 [10]: 5.9 µM (≈ 1.83 µg/mL)

Compound: COc1ccccc1CNC(=O)c1c(C)nc2cc(C)ccn12
- IC50 [1]: > 128 µM
- MIC90 [8]: 1.9 µM (≈ 0.588 µg/mL)
- MIC90 [9]: 2.8 µM (≈ 0.866 µg/mL)

Compound: COc1cccc(CNC(=O)c2c(C)nc3ncc(C)cn23)c1
- MIC90 [12]: > 10 µM
- IC50 [1]: 88.7 µM
- MIC90 [2]: > 50 µM
- MIC90 [3]: > 50 µM
- MIC90 [4]: > 50 µM
- MIC90 [5]: 12 µM (≈ 3.72 µg/mL)
- MIC90 [6]: 12 µM (≈ 3.72 µg/mL)
- MIC90 [7]: > 50 µM
- MIC [15]: > 128 µM
- MIC [16]: > 128 µM
- MIC [17]: > 128 µM
- MIC90 [8]: 0.1 µM (≈ 0.031 µg/mL)
- MIC90 [10]: 0.48 µM (≈ 0.149 µg/mL)
- MIC90 [11]: 5.94 µM (≈ 1.84 µg/mL)

Compound: O=[N+]([O-])c1cn2c(n1)OC[C@@H](OCc1ccc(OC(F)(F)F)cc1)C2 [PRETOMANID]
- MIC90 [12]: 4.9 µM (≈ 1.76 µg/mL)
- IC50 [1]: > 128 µM
- MIC90 [8]: 0.21 µM (≈ 0.0754 µg/mL)
- MIC90 [9]: 0.31 µM (≈ 0.111 µg/mL)
- MIC90 [10]: 0.47 µM (≈ 0.169 µg/mL)

Compound: Cc1ccn2c(C(=O)NCc3ccc(Cl)cc3)c(C)nc2c1
- MIC90 [12]: 28 µM (≈ 8.79 µg/mL)
- IC50 [1]: > 128 µM
- metabolised at 0.5 h [13]: 79%
- metabolised at 0.5 h [14]: 82%
- MIC [15]: > 128 µM
- MIC [16]: > 128 µM
- MIC [17]: > 128 µM
- Cmax [18]: 2000 ng/mL
- half-life [19]: 24 min
- clearance [20]: 51 mL/min/kg
- F [21]: 49%
- solubility [22]: 25 µM (≈ 7.84 µg/mL)
- Tmax [23]: 18.6 min
- MIC90 [8]: 0.51 µM (≈ 0.16 µg/mL)
- MIC90 [9]: 0.5 µM (≈ 0.157 µg/mL)
- MIC90 [10]: 1.94 µM (≈ 0.609 µg/mL)

Compound: Cc1ccn2c(C(=O)NCc3ccc(Cl)c(Cl)c3)c(C)nc2c1
- MIC90 [8]: 14.4 µM (≈ 5.01 µg/mL)
- MIC90 [9]: 9.3 µM (≈ 3.24 µg/mL)

Compound: Cc1ccn2c(C(=O)NCc3cccc(F)c3)c(C)nc2c1
- MIC90 [12]: 40.1 µM (≈ 11.9 µg/mL)
- IC50 [1]: > 128 µM
- MIC [15]: > 128 µM
- MIC [16]: > 128 µM
- MIC [17]: > 128 µM
- MIC90 [8]: 0.38 µM (≈ 0.113 µg/mL)
- MIC90 [9]: 0.29 µM (≈ 0.0862 µg/mL)
- MIC90 [10]: 1.98 µM (≈ 0.589 µg/mL)

Compound: Cc1ccc(CNC(=O)c2c(C)nc3cc(C)ccn23)cc1
- IC50 [1]: 54.7 µM
- MIC90 [8]: 0.8 µM (≈ 0.235 µg/mL)
- MIC90 [9]: 0.51 µM (≈ 0.15 µg/mL)
